Experimental data taken from patent US11406645B2, “Acetamide thienotriazolodiazepines and uses thereof” (Dana-Farber Cancer Institute, Inc., priority 2015, dated 2022).

What was measured:
[1] = male, CD1, mouse, in vivo
Method: (§1) Pharmacokinetic parameters were determined by administration of a candidate bromodomain inhibitor to male CD1 mice. Intravenous doses were delivered at 5 mg/kg, and oral doses at 10 mg/kg (N=3). […] The compound concentration in mouse blood was monitored over 24-hour time period to check the compound concentration in blood at 5 min, 30 min, 1 hour, 2 hours, 6 hours, 12 hours, and 24 hour via a series bleeding.

[2] = Pharmacokinetics in male CD1 mice, oral administration (whole blood); conditions: oral 10 mg/kg, N=3, whole blood
Method: as §1

SMILES | F [1] | Tmax [2]
Cc1sc2c(c1C)C(c1ccc(Cl)cc1)=N[C@@H](CC(=O)N1CCC(N3CCCCC3)CC1)c1nnc(C)n1-2 [Compound 603] | 20% | –
Cc1sc2c(c1C)C(c1ccc(Cl)cc1)=N[C@@H](CC(=O)NCCCN1CCCC1)c1nnc(C)n1-2 [Compound 604] | 7% | –
Cc1sc2c(c1C)C(c1ccc(Cl)cc1)=N[C@@H](CC(=O)OC(C)(C)C)c1nnc(C)n1-2 [JQ1] | – | 15 min
Cc1sc2c(c1C)C(c1ccc(Cl)cc1)=N[C@@H](CC(=O)NCCCN1CCC(N3CCCCC3)CC1)c1nnc(C)n1-2 [Compound 602] | 2% | –
Cc1sc2c(c1C)C(c1ccc(Cl)cc1)=N[C@@H](CC(=O)N1CCn3c(nnc3C(F)(F)F)C1)c1nnc(C)n1-2 [Compound 605] | 6% | –
Cc1sc2c(c1C)C(c1ccc(Cl)cc1)=N[C@@H](CC(=O)NCC1CCN(CCN(C)C)CC1)c1nnc(C)n1-2 [Compound 601] | 4% | –
